Source: PMC10628242, “Enzymatic β-elimination in natural product O- and C-glycoside deglycosylation” (Nature Communications, 2023)

Molecular target: T1, PuCGE (human intestinal bacterium PUE, UniProt A0A3Q9WUX0+A0A3Q9WXL1, A0A3Q9WUX0:Y39F)
T1 construct: gene dgpC; heterodimer alpha (39,205 Da) + beta (18,313 Da), co-expressed from pET-Duet-1 in E. coli; N-terminal Strep-tag II; Mn2+ enzyme
T1 sequence (A0A3Q9WXL1 1-324): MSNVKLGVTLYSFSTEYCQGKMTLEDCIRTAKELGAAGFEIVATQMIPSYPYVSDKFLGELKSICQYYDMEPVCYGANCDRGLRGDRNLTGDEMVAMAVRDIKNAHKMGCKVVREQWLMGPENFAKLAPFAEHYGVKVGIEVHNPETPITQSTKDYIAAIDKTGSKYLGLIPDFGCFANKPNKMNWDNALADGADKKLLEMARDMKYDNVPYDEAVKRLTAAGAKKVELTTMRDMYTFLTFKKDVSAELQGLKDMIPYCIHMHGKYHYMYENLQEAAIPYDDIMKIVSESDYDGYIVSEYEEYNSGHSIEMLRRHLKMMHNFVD
T1 sequence (A0A3Q9WUX0 1-142 Y39F): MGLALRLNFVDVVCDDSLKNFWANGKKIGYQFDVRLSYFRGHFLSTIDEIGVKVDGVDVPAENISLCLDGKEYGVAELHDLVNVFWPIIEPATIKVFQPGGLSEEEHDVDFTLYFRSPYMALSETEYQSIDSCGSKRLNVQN
Experiment: HPLC of aglycone release
Type: biochemical
Details: 2.0 mM substrate; potassium phosphate pH 6.0, 37 °C; text puts Tyr39 in beta, plasmid name puts Y39F on alpha

Question: `O=C(CCc1ccc(O)cc1)c1c(O)cc(O)cc1O[C@@H]1O[C@H](CO)[C@@H](O)C(=O)[C@H]1O` [3-keto-phlorizin, 3,5-dihydroxy-2-[3-(4-hydroxyphenyl)-1-oxopropyl]phenyl β-D-ribo-hexopyranosid-3-ulose] was tested. Which “HPLC of aglycone release” value did it give?
Answer: Its value is “The mutated PuCGE exhibits only a minor loss of 3-keto-phlorizin activity”.
